Measurements published in patent US20240156832A1, “METHODS OF METABOLIZING METOPIMAZINE AND ITS SALTS” (Neurogastrx, Inc., priority 2020, published 2024).
Entries after “also recorded” stand apart in the source; their conditions may differ.

Legend:
[1] = target: T1, human liver cytosolic aldehyde oxidase (Homo sapiens, UniProt Q06278); assay: Incubations with HLC fractions for AO activity; format: in vitro ADME; settings: HLC 1 mg/mL, 10 μM MPZ
T1 construct: tissue Xenotech; host or cells: pooled human liver cytosol
T1 sequence (Q06278 1-1338): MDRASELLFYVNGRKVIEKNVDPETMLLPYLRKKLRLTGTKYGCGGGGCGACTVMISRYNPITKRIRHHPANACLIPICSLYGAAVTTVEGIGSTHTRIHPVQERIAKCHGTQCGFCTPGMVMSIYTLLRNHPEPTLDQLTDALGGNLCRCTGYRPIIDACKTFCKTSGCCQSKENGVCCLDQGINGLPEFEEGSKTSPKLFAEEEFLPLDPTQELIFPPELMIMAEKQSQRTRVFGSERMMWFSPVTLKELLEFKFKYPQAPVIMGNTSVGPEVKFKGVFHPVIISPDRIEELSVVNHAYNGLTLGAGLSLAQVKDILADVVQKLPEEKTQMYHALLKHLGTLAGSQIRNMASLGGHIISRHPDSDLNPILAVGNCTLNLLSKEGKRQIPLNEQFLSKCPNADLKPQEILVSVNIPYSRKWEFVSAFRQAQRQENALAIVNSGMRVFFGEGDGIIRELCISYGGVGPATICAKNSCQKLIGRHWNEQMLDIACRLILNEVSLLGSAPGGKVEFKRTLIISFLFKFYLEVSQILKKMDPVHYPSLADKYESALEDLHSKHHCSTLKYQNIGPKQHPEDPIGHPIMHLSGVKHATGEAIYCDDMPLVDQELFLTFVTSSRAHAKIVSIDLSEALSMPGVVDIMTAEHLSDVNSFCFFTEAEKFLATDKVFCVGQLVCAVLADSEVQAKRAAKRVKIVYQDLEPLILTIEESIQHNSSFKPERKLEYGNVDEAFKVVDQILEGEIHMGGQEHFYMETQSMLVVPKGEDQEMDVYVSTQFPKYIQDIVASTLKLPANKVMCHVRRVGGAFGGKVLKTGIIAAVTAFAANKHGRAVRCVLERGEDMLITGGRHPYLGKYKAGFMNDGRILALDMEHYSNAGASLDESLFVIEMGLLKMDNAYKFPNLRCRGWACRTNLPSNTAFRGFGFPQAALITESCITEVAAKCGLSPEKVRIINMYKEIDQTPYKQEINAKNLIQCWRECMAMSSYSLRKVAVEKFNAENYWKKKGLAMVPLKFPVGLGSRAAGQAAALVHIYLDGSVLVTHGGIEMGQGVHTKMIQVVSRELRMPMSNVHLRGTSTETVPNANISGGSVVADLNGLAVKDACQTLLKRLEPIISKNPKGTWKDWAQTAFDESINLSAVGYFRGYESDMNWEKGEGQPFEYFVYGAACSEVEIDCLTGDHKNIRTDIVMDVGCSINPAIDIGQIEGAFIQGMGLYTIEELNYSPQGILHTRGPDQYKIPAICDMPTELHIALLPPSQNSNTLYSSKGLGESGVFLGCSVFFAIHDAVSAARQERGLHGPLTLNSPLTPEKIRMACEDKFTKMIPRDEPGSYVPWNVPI
Experimental: The metabolism of MPZ was evaluated in the human liver cytosolic incubation. A metabolic incubation was performed with HLC (1 mg/mL protein) and 10 μM MPZ at 37° C. for on an orbital shaker for 60 min. […] Another set of incubation was also conducted 1 μM phthalazine, a known substrate for aldehyde oxidase as positive control, under identical conditions.

[2] = test system: human microsomal liver amidase; assay: Incubations with HLM for microsomal hydrolase/amidase activity; format: in vitro ADME; settings: HLM, 10 μM MPZ, 60 min, pH 7.4, 8.4 and 9.4
Experimental: Incubations with HLM for Microsomal Hydrolase/Amidase Activity Prior to the reaction for amidase activity, the reaction mixture containing KPi buffer (pH 7.4, 8.4, or 9.4) and HLM was pre-incubated at 50° C. for 5 minutes to inactivate CYP and FMO activities in HLM. The mixture was placed on ice to cool down. An aliquot was taken out which was considered as t=0 min incubation. Then 10 μM MPZ was added into the remaining mixture and incubated at 37° C. on an orbital shaker for 60 minutes. A parallel set of incubations was conducted with 10 μM MPZ in the presence at 2 and 16 μM, of BNPP (a known inhibitor of amidase). All reactions were in triplicate. The total percentage of organic solvent in incubation mixture was ≤0.1%. The reactions were terminated by the addition of chilled acetonitrile: methanol, 90:10, (v/v). The samples were vortex-mixed and stored at ≤−70° C. and were subjected analyzed by LC MS/MS.

## CS(=O)(=O)c1ccc2c(c1)N(CCCN1CCC(C(=O)O)CC1)c1ccccc1S2 [MPZA, metopimazine acid]
[1]; incubation time 0 min
  Metopimazine Acid Formation, 100 μM Menadione: 0.00 nM
  Metopimazine Acid Formation, No Menadione: 0.00 nM
[1]; incubation time 60 min
  Metopimazine Acid Formation, 100 μM Menadione: 718.90 ± 21.40 nM
  Metopimazine Acid Formation, No Menadione: 1371.66 ± 70.93 nM
[2]
  MPZA formation as a function of pH: faster the higher the pH; also recorded: maximal at the highest pH tested, pH 9.4; also recorded: occurs at all pHs and increases at pHs above physiologic pH
